Tests used:
Type in all cases: functional
[1] = test system: Trichostrongylus colubriformis; experiment: Antiparasitic activity against Trichostrongylus colubriformis at dose of 0.10 mg/kg in sheep anthelmintic test; details: dose 0.1 mg/kg
Haemonchus contortus [2] = experiment: Antiparasitic activity against Haemonchus contortus at dose of 0.10 mg/kg in sheep anthelmintic test; details: dose 0.1 mg/kg
[3] = test system: Oesophagostomum columbianum; experiment: Antiparasitic activity against Oesophagostomum columbianum at dose of 0.10 mg/kg in sheep anthelmintic test; details: dose 0.1 mg/kg
Artemia = experiment: In vitro antiparasitic activity in brine shrimp assay
Cooperia oncophora [4] = experiment: Antiparasitic activity against Cooperia oncophora at dose of 0.10 mg/kg in sheep anthelmintic test; details: dose 0.1 mg/kg
Trichostrongylus axei [5] = experiment: Antiparasitic activity against Trichostrongylus axei at dose of 0.10 mg/kg in sheep anthelmintic test; details: dose 0.1 mg/kg
[6] = test system: Teladorsagia circumcincta; experiment: Antiparasitic activity against Ostertagia circumcincta at dose of 0.10 mg/kg in sheep anthelmintic test; details: dose 0.1 mg/kg
Cooperia [7] = experiment: Antiparasitic activity against Cooperia […] at dose of 0.10 mg/kg in sheep anthelmintic test; details: dose 0.1 mg/kg
Trichostrongylus axei [8] = experiment: Antiparasitic activity against Trichostrongylus axei at dose of 0.05 mg/kg in sheep anthelmintic test
[9] = test system: Trichostrongylus colubriformis; experiment: Antiparasitic activity against Trichostrongylus colubriformis at dose of 0.05 mg/kg in sheep anthelmintic test
Haemonchus contortus [10] = experiment: Antiparasitic activity against Haemonchus contortus at dose of 0.05 mg/kg in sheep anthelmintic test
[11] = test system: Teladorsagia circumcincta; experiment: Antiparasitic activity against Ostertagia circumcincta at dose of 0.05 mg/kg in sheep anthelmintic test
[12] = test system: Oesophagostomum columbianum; experiment: Antiparasitic activity against Oesophagostomum columbianum at dose of 0.05 mg/kg in sheep anthelmintic test
Cooperia oncophora [13] = experiment: Antiparasitic activity against Cooperia oncophora at dose of 0.05 mg/kg in sheep anthelmintic test
Cooperia [14] = experiment: Antiparasitic activity against Cooperia […] at dose of 0.05 mg/kg in sheep anthelmintic test
Ovis aries [15] = experiment: Antiparasitic activity against Haemonchus contortus at dose of 0.08 mg/kg in sheep anthelmintic test
Ovis aries [16] = experiment: Antiparasitic activity against Cooperia […] at dose of 0.08 mg/kg in sheep anthelmintic test
Ovis aries [17] = experiment: Antiparasitic activity against Trichostrongylus axei at dose of 0.08 mg/kg in sheep anthelmintic test
Ovis aries [18] = experiment: Antiparasitic activity against Trichostrongylus colubriformis at dose of 0.08 mg/kg in sheep anthelmintic test
Ovis aries [19] = experiment: Antiparasitic activity against Oesophagostomum columbianum at dose of 0.08 mg/kg in sheep anthelmintic test
Ovis aries [20] = experiment: Antiparasitic activity against Ostertagia circumcincta at dose of 0.08 mg/kg in sheep anthelmintic test
Ovis aries [21] = experiment: Antiparasitic activity against Trichostrongylus axei at dose of 0.20 mg/kg in sheep anthelmintic test; details: dose 0.2 mg/kg
Ovis aries [22] = experiment: Antiparasitic activity against Oesophagostomum columbianum at dose of 0.20 mg/kg in sheep anthelmintic test; details: dose 0.2 mg/kg
Ovis aries [23] = experiment: Antiparasitic activity against Trichostrongylus colubriformis at dose of 0.20 mg/kg in sheep anthelmintic test; details: dose 0.2 mg/kg
Ovis aries [24] = experiment: Antiparasitic activity against Haemonchus contortus at dose of 0.20 mg/kg in sheep anthelmintic test; details: dose 0.2 mg/kg
Ovis aries [25] = experiment: Antiparasitic activity against Ostertagia circumcincta at dose of 0.20 mg/kg in sheep anthelmintic test; details: dose 0.2 mg/kg
Ovis aries [26] = experiment: Antiparasitic activity against Cooperia […] at dose of 0.20 mg/kg in sheep anthelmintic test; details: dose 0.2 mg/kg
Ovis aries [27] = experiment: Antiparasitic activity against Cooperia oncophora at dose of 0.20 mg/kg in sheep anthelmintic test; details: dose 0.2 mg/kg

SMILES: CCC(C)[C@H]1O[C@]2(C=C[C@@H]1C)C[C@@H]1C[C@@H](C/C=C(\C)[C@@H](O[C@H]3C[C@H](OC)[C@@H](O[C@H]4C[C@H](OC)[C@H](NC(=O)OC)[C@H](C)O4)[C@H](C)O3)[C@@H](C)/C=C/C=C3\CO[C@@H]4[C@H](O)C(C)=C[C@@H](C(=O)O1)[C@]34O)O2 (stereo not given in full)
- Reduction [1]: >95%
- Reduction (Haemonchus contortus [2]): >95%
- Reduction [3]: >95%
- IC100 (Artemia): 430 ng/mL
- Reduction (Cooperia oncophora [4]): >95%
- Reduction (Trichostrongylus axei [5]): >95%
- Reduction [6]: >95%
- Reduction (Cooperia [7]): >95%

SMILES: CCC(=O)N[C@@H]1[C@H](C)O[C@@H](O[C@H]2[C@H](C)O[C@@H](O[C@@H]3/C(C)=C/C[C@@H]4C[C@@H](C[C@]5(C=C[C@H](C)[C@@H](C(C)CC)O5)O4)OC(=O)[C@@H]4C=C(C)[C@@H](O)[C@H]5OC/C(=C\C=C\[C@@H]3C)[C@]54O)C[C@@H]2OC)C[C@@H]1OC (stereo not given in full)
- Reduction (Trichostrongylus axei [8]): >95%
- Reduction [9]: >95%
- IC100 (Artemia): 430 ng/mL
- Reduction (Haemonchus contortus [10]): >95%
- Reduction [11]: >95%
- Reduction [12]: >95%
- Reduction (Cooperia oncophora [13]): >95%
- Reduction (Cooperia [14]): >95%

SMILES: CCC(C)[C@H]1O[C@]2(C=C[C@@H]1C)C[C@@H]1C[C@@H](C/C=C(\C)[C@@H](O[C@H]3C[C@H](OC)[C@@H](O[C@H]4C[C@H](OC)/C(=N\NC(N)=O)[C@H](C)O4)[C@H](C)O3)[C@@H](C)/C=C/C=C3\CO[C@@H]4[C@H](O)C(C)=C[C@@H](C(=O)O1)[C@]34O)O2 (stereo not given in full)
- Reduction (Ovis aries [15]): >95%
- IC100 (Artemia): 650 ng/mL
- Reduction (Ovis aries [16]): <50%
- Reduction (Ovis aries [17]): >95%
- Reduction (Ovis aries [18]): >95%
- Reduction (Ovis aries [19]): >95%
- Reduction (Ovis aries [20]): >95%

SMILES: CCC(C)[C@H]1O[C@]2(C=C[C@@H]1C)C[C@@H]1C[C@@H](C/C=C(\C)[C@@H](O[C@H]3C[C@H](OC)[C@@H](O[C@H]4C[C@H](OC)[C@H](NCc5ccccc5)[C@H](C)O4)[C@H](C)O3)[C@@H](C)/C=C/C=C3\CO[C@@H]4[C@H](O)C(C)=C[C@@H](C(=O)O1)[C@]34O)O2 (stereo not given in full)
- Reduction (Ovis aries [21]): <50%
- Reduction (Ovis aries [22]): >95%
- Reduction (Ovis aries [23]): >95%
- IC100 (Artemia): >55500 ng/mL
- Reduction (Ovis aries [24]): >95%
- Reduction (Ovis aries [25]): >95%
- Reduction (Ovis aries [26]): >95%
- Reduction (Ovis aries [27]): >95%

SMILES: CCC(C)[C@H]1O[C@]2(C=C[C@@H]1C)C[C@@H]1C[C@@H](C/C=C(\C)[C@@H](O[C@H]3C[C@H](OC)[C@@H](O[C@H]4C[C@H](OC)[C@H](NS(C)(=O)=O)[C@H](C)O4)[C@H](C)O3)[C@@H](C)/C=C/C=C3\CO[C@@H]4[C@H](O)C(C)=C[C@@H](C(=O)O1)[C@]34O)O2 (stereo not given in full)
- Reduction (Trichostrongylus axei [8]): >95%
- Reduction [9]: >95%
- IC100 (Artemia): 430 ng/mL
- Reduction (Haemonchus contortus [10]): >95%
- Reduction [11]: >95%
- Reduction [12]: >95%
- Reduction (Cooperia oncophora [13]): >95%
- Reduction (Cooperia [14]): >95%

SMILES: CCC(C)[C@H]1O[C@]2(C=C[C@@H]1C)C[C@@H]1C[C@@H](C/C=C(\C)[C@@H](O[C@H]3C[C@H](OC)[C@@H](O[C@H]4C[C@H](OC)[C@H](N(C)C(C)=O)[C@H](C)O4)[C@H](C)O3)[C@@H](C)/C=C/C=C3\CO[C@@H]4[C@H](O)C(C)=C[C@@H](C(=O)O1)[C@]34O)O2 (stereo not given in full)
- Reduction (Trichostrongylus axei [8]): >95%
- Reduction [9]: >95%
- IC100 (Artemia): 650 ng/mL
- Reduction (Haemonchus contortus [10]): >95%
- Reduction [11]: >95%
- Reduction [12]: >95%
- Reduction (Cooperia oncophora [13]): >95%
- Reduction (Cooperia [14]): >95%

SMILES: CCC(C)[C@H]1O[C@]2(CC(O)[C@@H]1C)C[C@@H]1C[C@@H](C/C=C(\C)[C@@H](O[C@H]3C[C@H](OC)[C@@H](O[C@H]4C[C@H](OC)[C@H](NC(C)=O)[C@H](C)O4)[C@H](C)O3)[C@@H](C)/C=C/C=C3\CO[C@@H]4[C@H](O)C(C)=C[C@@H](C(=O)O1)[C@]34O)O2 (stereo not given in full)
- Reduction [1]: >95%
- Reduction (Haemonchus contortus [2]): <50%
- Reduction [3]: >95%
- IC100 (Artemia): 870 ng/mL
- Reduction (Cooperia oncophora [4]): >95%
- Reduction (Trichostrongylus axei [5]): >95%
- Reduction [6]: >95%
- Reduction (Cooperia [7]): 76%

From ChEMBL document CHEMBL1128617, “4-Deoxy-4-aminoavermectins with potent broad spectrum antiparasitic activities” (1995)
